Results reported in patent US11236108B2, “Functionalized heterocycles as antiviral agents” (ENANTA PHARMACEUTICALS, INC., priority 2019, dated 2022).
pEC50: −log10 of the molar value.

Legend:
[1] = Compound induced cellular toxicity in HepG2 cells (ATPlite 1 Step); type: cell-based; details: human, three days exposure, 50% reduction of total ATP levels relative to no drug controls
Procedure: At day 3, post seeding cells are treated with ATPlite 1 Step according to the manufacturer's instructions.

hepatitis B virus (HBV) = experiment: Reduction of viral product accumulation (HBV DNA qPCR, HBsAg or HBeAg ELISA) in 2.2.15 cells; type: cell-based; details: 120 h, day 5 post treatment, 50% reduction of viral product accumulation in cell lysates or supernatants relative to no drug controls, readout not specified
Procedure: 2.2.15 cells are passaged upon attaining confluency in DMEM/F12 media in the presence of 10% FBS, Penn/Strep, and 250 ug/mL G418. Novel compounds are 5 fold serially diluted in DMSO and added to 96 well plates containing 35,000 cells/well at a 1:200 dilution so that the final concentration of DMSO is 0.5%. On day 5, post treatment cell lysates and supernatants are harvested for analysis.
Cells are lysed using Agilent Sidestep Lysis buffer, diluted 1:100 and quantified via quantitative real time PCR. Commercially available ELISA kits are used to quantitate the viral proteins HBsAg (Alpco) or HBeAg (US Biological) by following the manufacturer's recommended protocol after diluting samples to match the linear range of their respective assays. Irrespective of readout, compound concentrations that reduce viral product accumulation in the cell lysates or supernatants by 50% relative to no drug controls (EC50) are reported; EC50 ranges are as follows: A<0.1 μM; B 0.1-1 μM; C>1 μM.

Structure (SMILES) | CC50 at 3 days [1] | pEC50 (hepatitis B virus (HBV))
CC(C)(C)[C@@H]1Oc2c(cc(Br)c3occc23)-c2c1cc(C(=O)O)c(=O)n2C1CC1 [Example 1, (S)-11-bromo-5-(tert-butyl)-9-cyclopropyl-8-oxo-8,9-dihydro-5H-furo[2′,3′:7,8]chromeno[4,3-b]pyridine-7-carboxylic acid] | > 25 µM | > 7.00
CC(C)(C)[C@@H]1Oc2c(cc(Cl)c3occc23)-c2c1cc(C(=O)O)c(=O)n2C1CC1 [Example 2, (S)-5-(tert-butyl)-11-chloro-9-cyclopropyl-8-oxo-8,9-dihydro-5H-furo[2′,3′:7,8]chromeno[4,3-b]pyridine-7-carboxylic acid] | > 25 µM | > 7.00
CC(C)(C)[C@@H]1Oc2c(cc(Cl)c3ccoc23)-c2c1cc(C(=O)O)c(=O)n2C1CC1 [Example 3, (S)-5-(tert-butyl)-11-chloro-9-cyclopropyl-8-oxo-8,9-dihydro-5H-furo[3′,2′:7,8]chromeno[4,3-b]pyridine-7-carboxylic acid] | > 25 µM | > 7.00
CC(C)(C)[C@@H]1Oc2c(ccc3occc23)-c2c1cc(C(=O)O)c(=O)n2C1CC1 [Example 4, (S)-5-(tert-butyl)-9-cyclopropyl-8-oxo-8,9-dihydro-5H-furo[2′,3′:7,8]chromeno[4,3-b]pyridine-7-carboxylic acid] | > 25 µM | > 7.00
CC(C)(C)[C@@H]1Oc2c(cc(O)c3occc23)-c2c1cc(C(=O)O)c(=O)n2C1CC1 [Example 5, (S)-5-(tert-butyl)-9-cyclopropyl-11-hydroxy-8-oxo-8,9-dihydro-5H-furo[2′,3′:7,8]chromeno[4,3-b]pyridine-7-carboxylic acid] | > 25 µM | > 7.00
COc1cc2c(c3ccoc13)O[C@@H](C(C)(C)C)c1cc(C(=O)O)c(=O)n(C3CC3)c1-2 [Example 6, (S)-5-(tert-butyl)-9-cyclopropyl-11-methoxy-8-oxo-8,9-dihydro-5H-furo[2′,3′:7,8]chromeno[4,3-b]pyridine-7-carboxylic acid] | > 25 µM | > 7.00
